For data set [1], the system named is TflA protein. The data set can be described thus: Degradation of toxoflavin and its derivatives by TflA protein (TLC enzyme analysis). Format: biochemical, Paenibacillus polymyxa JH2. To be noted: within given time; see FIG. 8. How it is done: 5 μM TflA protein, 10 μM MnCl2 and 5 mM DTT (dithiothreitol) were added to analysis buffer (50 mM sodium phosphate (pH 6.5)) to give 200 μl mixture and the reaction was carried out at 25 °C. […] After 10 min of the reaction, 200 μl of chloroform was added to stop the reaction. The chloroform layer was dried completely, then 10 μl of 100% methanol was added. An aliquot taken from the reaction mixture comprising methanol was applied on a TLC plate using pipette. The resulting plate was placed in TLC chamber containing mixed solvents of chloroform and methanol (95:5, V:V) at room temperature. TLC was visualized under UV illuminator (254 nm and 365 nm).

Data set [2] relates to leaves of wild rice. Description: Toxoflavin treatment of cut rice leaves, wild type. The settings on record: toxoflavin 0, 25, 50 or 100 μM, under light; 40 hrs after the treatment. Here is the method: (§1) Thus, the experiment of the present invention was carried out under light.
In data set [3] the test system is Arabidopsis Col-0, non-transgenic organisms. The data set can be described thus: Germination and growth on toxoflavin medium, non-transgenic Arabidopsis. Type of data set: in vivo, Arabidopsis thaliana. To be noted: 20 uM toxoflavin.
Data set [4] relates to transgenic plants to which the toxoflavin-resistant gene has been incorporated. The data set can be described thus: Seeds on MS plate containing toxoflavin, transgenic plants. Format: in vivo, Arabidopsis thaliana. The settings on record: media comprising 20 uM toxoflavin; ten days. Here is the method:
Detailed method for the transformation is described below. • 1. […] 0.03% silwet was added to the suspension. • 4. […] The plants were wrapped with a plastic bag. Bags were removed two days later.
Roots were also growing well.

The subject of data set [5] is rice callus transformed with pTflA vector. Description: Selection with toxoflavin of rice callus transformed with pTflA. Type of data set: cell-based.
Data set [6] has as its system non-transgenic organisms (Arabidopsis Col-0). The data set can be described thus: Seeds on MS plate containing toxoflavin, non-transgenic organisms. Type of data set: in vivo, Arabidopsis thaliana. To be noted: media comprising 20 uM toxoflavin; ten days.
Data set [7] concerns leaves of transgenic T3 rice plant with tflA gene. The data set can be described thus: Toxoflavin treatment of leaf pieces, transgenic T3 rice plant expressing tflA. Type of data set: in vivo. The settings on record: 0, 25, 50 or 100 μM toxoflavin, 48 hrs, under light. Here is the method: as §1
Data set [8] concerns Arabidopsis Col-0. The data set can be described thus: Photo-bleaching test, non-transgenic Arabidopsis. Format: in vivo, Arabidopsis thaliana. The source says: (§2) Such results correspond to the result of PCR described above.
The subject of data set [9] is Arabidopsis Col-0, non-transgenic organisms. Description: Photo-bleaching test, non-transgenic Arabidopsis. Format: in vivo, Arabidopsis thaliana.
Description: as §2

Data set [10] concerns rice callus transformed with pCamLA vector. Description: Selection with toxoflavin of rice callus transformed with pCamLA. Format: cell-based.
The subject of data set [11] is leaves of the transgenic plants to which tflA gene has been introduced. Description: Toxoflavin treatment of cut rice leaves, transgenic T3 plants. The settings on record: toxoflavin 0, 25, 50 or 100 μM, under light, 48 hrs. Here is the method: as §1
The test system of data set [12] is rice callus transformed with pCamLA vector. The data set can be described thus: Survival of rice callus under selection with toxoflavin, pCamLA. Format: cell-based.
The subject of data set [13] is Arabidopsis Col-0, transgenic organisms with tflA. Description: Photo-bleaching test, transgenic Arabidopsis. Format: in vivo, Arabidopsis thaliana. The settings on record: FIG. 24.
Description: as §2

Data set [14] relates to transgenic organisms. The data set can be described thus: Photo-bleaching test, transgenic Arabidopsis. Format: in vivo, Arabidopsis thaliana. To be noted: transgenic organisms selected for the test; FIG. 24.
Description: as §2

The subject of data set [15] is wild rice leaves (Dongjinbyeo wild-type plant). Description: Toxoflavin treatment of leaf pieces, wild-type rice. The settings on record: 0, 25, 50 or 100 μM toxoflavin, 48 hrs, under light; seen 40 hrs after treatment. Type of data set: in vivo. Here is the method: as §1
Data set [16] relates to rice callus transformed with pTflA vector. The data set can be described thus: Survival of rice callus under selection with toxoflavin, pTflA. Type of data set: cell-based.
The test system of data set [17] is Cn1ncnc2c(=O)n(C)c(=O)nc1-2. The data set can be described thus: purified protein, by the assay type. The settings on record: other: toxoflavin 80-200 μM, 50 mM sodium phosphate pH 6.5, MnCl2 and DTT, Lineweaver-Burk plot.
Description: Each of experimental points is a mean value that is calculated from data obtained from at least of three measurements.
Setting [18] is: toxoflavin 5 ug/ml, selection before redifferentiation, FIG. 18.
Setting [19] is: various concentrations, even at low concentration.
[20] abbreviates: toxoflavin 5 ug/ml, before redifferentiation.
[21] abbreviates: toxoflavin 7.5 ug/ml, four weeks after placement on redifferentiation medium.

The text below walks through data of US20100269215A1 (SNU R&DB Foundation, priority 2006, published 2010).

A word on the Km: it is the substrate concentration at which the rate is half of its maximum.

For the compound `Cc1nc2c(=O)n(C)c(=O)nc-2n(C)n1` [3-methyltoxoflavin], in data set [1], the “degradation by TflA protein” value is on record as “completely degraded”.
For `O=c1[nH]c(=O)c2cc3ccccc3nc2[nH]1` [5-deazaflavin], the “degradation by TflA protein” value in data set [1] was “not degraded at all”.
The same measure, in the same setting: the value for `Cn1nc(-c2ccccc2)nc2c(=O)n(C)c(=O)nc1-2` [3-phenyltoxoflavin] was “not degraded at all”.
Same read-out and setting: the value for `CC1=NN(C)c2[nH]c(=O)n(C)c(=O)c2N1` [3-methyl 4,8-dihydrotoxoflavin] was “partially degraded”.
Regarding `Cn1ncnc2c(=O)n(C)c(=O)nc1-2` [toxoflavin], the “degradation by TflA protein” value in data set [1] is given as “completely degraded”. Also, the discoloration of leaves entry is listed as “discoloration due to the toxin started to show up” in data set [2], “no such discoloration was observed” in [7], “no such discoloration was observed” in data set [11] and “discoloration due to the toxin started to show up” in [15]. Besides, in [3], the germination result is “germination did not occur for most of the non-transgenic organisms”. Besides, the “root growth where germination occurred” value in [3] is listed as “root growth was not normal”. In data set [4], the growth result is given as “show normal growth”. The survival of callus is on record as “only a part of the callus died out” in data set [5] (setting [18]); “the callus was redifferentiated normally” in data set [5] (toxoflavin 7.5 ug/ml, four weeks after placement on medium for redifferentiation, FIG. 20); “most of the callus died out” in data set [10] (setting [18]); “most of the callus died out” in data set [10] (toxoflavin 7.5 ug/ml, four weeks after placement on medium for redifferentiation, FIG. 19); “most of the callus died out” in [12] (setting [20]); “most of the callus died out” in data set [12] (setting [21]). Further, the values for the survival of callus in [16] (setting [20]) and in data set [16] (setting [21]) were “only a part of the callus died out” and “the callus was redifferentiated normally”, respectively. Also, the “germination and root growth” value in data set [6] is reported as “germination did not occur for most of the non-transgenic organisms”. Also, the photo-bleaching entry is “the bleaching occurred” in data set [8] (non-transgenic organisms, FIG. 24); “the bleaching occurred” in data set [9] (bleaching test, FIG. 24); “photo-bleaching was not observed” in [13]; “photo-bleaching was not observed” in data set [14]. In data set [8] (setting [19]), the “bleaching effect on the plant” value is on record as “exerts a bleaching effect”. For the same compound, the bleaching effect entry in data set [9] (setting [19]) is “even at low concentration toxoflavin exerts a bleaching effect”.
Consider `Cc1n[nH]c2nc(=O)n(C)c(=O)c-2n1` [3-methylreumycin], for which the “degradation by TflA protein” value in data set [1] was “completely degraded”.
On the same count and under the same terms, to `Cn1c(=O)nc2[nH]nc(-c3ccccc3)nc-2c1=O` [3-phenylreumycin] belongs “not degraded at all”; to `Cn1c(=O)c2ncnnc2n(C)c1=O` [fervenulin], “partially degraded”; to `Cn1c(=O)[nH]c2nncnc2c1=O` [reumycin], “partially degraded”.
Consider “Paenibacillus polymyxa JH2 TflA protein, wild type, N-terminal His-tagged (His-TflA), SEQ ID NO: 2 (Paenibacillus polymyxa)”, for which, in data set [17], the Km was 69.72 µM.
Turning to 4,8-dihydrotoxoflavin, the “degradation by TflA protein” value in data set [1] was “completely degraded”.
